Assay results as given in patent publication US8575170B2, “Flurbiprofen analogs and methods of use in treating cancer” (The Regents of the Unversity of Colorado, a body corporate, priority 2010, dated 2013).
Read-outs that look alike come from different tables or passages of the source.

Columns and labels:
[1] = tested on: H2122 lung carcinoma solid tumor xenograft; experiment: H2122 lung carcinoma xenograft in nude mice; assay type: in vivo, athymic nude mice; settings: 5 mg/kg daily intraperitoneal, from day 7 after implantation, over the 25 days of treatment, FIG. 11
Experimental: The efficacy of the treatment method was examined for both lung carcinoma-cell tumors and pancreatic-cell tumors implanted in athymic mice, according to the method detailed in Example 3. In the first study, mice injected with lung-carcinoma cells were treated, seven days after cancer-cell implantation, by daily injection of 5 mg/kg body weight of one of three different flurbiprofen analog compounds: B1005 (GCBH 104); B1020 (GCBH 108) and B1031 (GCBH 110). Tumor size was measured by calipers at the days indicated in FIG. 11, with final tumor weight and volume being determined by extracting the tumor from the sacrificed animals.
Compounds having high in vitro cytotoxic activity were tested against implanted tumors in vivo. In one study, athymic nude mice were implanted subcutaneously with suspensions of approximately 2 million H2122 lung carcinoma cells, in Matrigel suspension. On the seventh day after tumor implantation, groups of 5 mice bearing implants were injected intraperitoneally with the compounds being tested at 5 mg/kg/every day; control animals were injected with an equal volume of isotonic saline. […] Tumor size was measured with a caliper three times per week. Tumor volume was calculated by the formula: Volume (cc)=3.14×(length)×(width)^2/6
At autopsy, tumors were removed and weighed. Tumor inhibition was calculated on both weight and measurement basis.

[2] = tested on: Panc-813; experiment: MTT cell viability, Panc-813; assay type: cell-based; settings: Pancreatic cancer cell, 96 h; Pancreatic cancer cells Panc-813; 4 days incubation
From the text: (§1) The ability of the flurbiprofen analog compounds of the invention to inhibit cancer cell growth and survival (viability) in a variety of cancer lines was examined in a standard MTT assay for cell viability, as detailed in Example 2.
(§2) Similar results were obtained for the effect of the B1031 compound on the 14 pancreatic tumor cells lines shown in Table 3 below, where the dose dependent effect of the compound on survival of the pancreatic cancer cell lines is shown in FIG. 5.
(§3) The studies reported in Tables 1-3 above were carried out by incubating the cells in the test compound for four days, under standard cell-culture conditions, and measuring cell survival on day 5 (see Example 2).
(§4) Cell growth and survival following treatment with N—[(S)-2-Fluoro-α-methyl-4-biphenylacetyl]-[L-(4-phenylphenyl)alanine]-N-(2,2,6,6-tetramethyl-4-piperidinyl)amide (GCBH-110=B1031; (S)-Fmba-L-Bip-Atmp) were measured by a rapid colorimetric assay based on the tetrazolium salt MTT (3-(4,5-dimethylthiazol-2-yl)-2,5-diphenyl tetrazolium bromide) (Mosmann, J. Immunol. Methods 65: 55-63, 1983, with minor modifications).
(§5) Briefly, approximately 1,000-5,000 cancer cells from 15 different cancer cells lines were plated in 100 μL of growth medium in 96-well flat-bottomed microtiter plates. Cells were incubated overnight to allow recovery. […] Absorbance was immediately determined using a scanning multiwell plate reader.

[3] = tested on: UMSCC10A; experiment: MTT cell viability, UMSCC10A; assay type: cell-based; settings: UMSCC-10A; Head and neck cancer cell line UMSCC10A
Experimental: as §1
(§6) A similar study was conducted on 14 […] cancer cell lines, identified in Table 2.
as §4
(§7) Briefly, approximately 1,000-5,000 cancer cells from 15 different cancer cells lines were plated in 100 μL of growth medium in 96-well flat-bottomed microtiter plates. Cells were incubated overnight to allow recovery. Compounds to be tested were added to the cells in triplicate in a range of concentrations and the cells were incubated at 37° C., 5% CO2, with 100% humidity. Control cells were treated in the same way without antagonists. […] Plates were incubated for 4 days, allowing sufficient time for cell replication and compound-induced cell death to occur. […] Absorbance was immediately determined using a scanning multiwell plate reader. […]

[4] = tested on: UMSCC19; experiment: MTT cell viability, UMSCC19; assay type: cell-based; settings: Head and neck cancer cell line UMSCC19
Experimental: as §1, §6, §4, §7

[5] = tested on: 15 different cancer cells lines; experiment: MTT cell viability, 15 different cancer cell lines (FIG. 1); assay type: cell-based; settings: 96 h, several cancer cell lines, 4 days, read-out: concentrations causing 50% cell death
Experimental: as §4
(§8) Briefly, approximately 1,000-5,000 cancer cells from 15 different cancer cells lines were plated in 100 μL of growth medium in 96-well flat-bottomed microtiter plates. Cells were incubated overnight to allow recovery. Compounds to be tested were added to the cells in triplicate in a range of concentrations and the cells were incubated at 37° C., 5% CO2, with 100% humidity. Control cells were treated in the same way without antagonists. […] Plates were incubated for 4 days, allowing sufficient time for cell replication and compound-induced cell death to occur. On day 5, 25 μL of a 2 mg/mL solution of MTT (Sigma) dissolved in RMPI-1640 was added to each well. The plate was incubated for 4 h at 37° C. The supernatant liquid was removed and the blue formazan complex was dissolved by adding 100 μL of 0.02 N HCl in 75% isopropanol to all wells. Absorbance was immediately determined using a scanning multiwell plate reader.

[6] = tested on: MiaPaCa; experiment: MTT cell viability, MiaPaCa; assay type: cell-based; settings: Homo sapiens, MIA PaCa-2, 96 h; Pancreatic cancer cells MiaPaCa; 4 days incubation
From the text: as §1, §2, §3, §4, §5

[7] = tested on: lung cancer cell lines; experiment: MTT cell viability, panel of lung cancer cell lines; assay type: cell-based
From the text: as §1
In one group of studies, the effect of compound B1031 (compound GCBH-110 above) on a variety of lung cancer cells lines identified in Tables 1A-1C was investigated FIGS. 1 and 2 are dose-response curves, showing the change in percent survival as a function of compound concentration, after four days incubation in the presence of the compound for the various cell lines tested (identified in Tables 1A-1C below). […] The 12 cell lines shown in Table 1A are all adenocarcinoma lines, a type of non-small cell lung carcinoma; the 11 cell lines shown in Table 1B, identified as adenosquamous, large cell, mesothelioma, squamous, and squaous mesothelioma, are non-small cell lung carcinoma lines; and the 7 cell lines shown in Table 1C are all small-cell lung carcinoma cell lines.
as §4, §8
Similarly, cell growth and survival following treatment with GCBH-110=B1031 was tested using the same MTT assay in 17 lung cancer cell lines. GCBH-110=B1031 caused 50% cell death at concentrations between about 0.1 μM and about 2 μM under these conditions (FIG. 2).

[8] = tested on: H1703; experiment: MTT cell viability, H1703; assay type: cell-based; settings: Homo sapiens, NCI-H1703, 96 h; Adenosquamous lung cell line H1703; 4 days incubation
Experimental: as §1, §3, §4
Briefly, approximately 1,000-5,000 cancer cells from 15 different cancer cells lines were plated in 100 μL of growth medium in 96-well flat-bottomed microtiter plates. Cells were incubated overnight to allow recovery. Compounds to be tested were added to the cells in triplicate in a range of concentrations and the cells were incubated at 37° C., 5% CO2, with 100% humidity. Control cells were treated in the same way without antagonists. […] Absorbance was immediately determined using a scanning multiwell plate reader.

[9] = tested on: U251 malignant glioma cells; experiment: Inhibition of U251 malignant glioma cells; assay type: cell-based; settings: Homo sapiens, U-251; U251 brain cancer cell line, FIG. 6B
Experimental: FIGS. 6A and 6B show the loss in cell viability in HT-29 colon cancer cells, in response to increasing concentrations of GH 502 (GCBH 118) (FIG. 6A), and the effect of various treatments, including increasing concentration of GH501 (GCBH 110) on U251 malignant glioma cells and BTIC EF12 brain tumor initiating stem cells (FIG. 6B).
The study shown in FIG. 6A examined the effect of GCBH-118 (GH502) on an HT-29 colon cancer cell, showing an IC50 value of about 1 μM. […] The graph indicates an IC50 value for the B1031 compound against the U251 brain cancer cell line of between 2 and 10 μM.

IC50 [2]: 3.1 µM
IC50 [6]: 0.74 µM
IC50 ([7]; most of the lung cancer cell lines of Tables 1A-1C, read-out: IC50 value, most cell lines): < 0.5 µM
IC50 ([7]; span over the 32 lung cancer cell lines of Tables 1A-1C, read-out: IC50 values): 0.1 to 1.8 µM
IC50 fold lower than flurbiprofen (anti-cancer activity relative to flurbiprofen) ([7]; variety of lung carcinoma cells, FIG. 9): about 1000 fold
IC50 [8]: 0.36 µM
IC50 [9]: 2 to 10 µM
SMILES: C[C@H](C(=O)N[C@@H](Cc1ccc(-c2ccccc2)cc1)C(=O)NC1CC(C)(C)NC(C)(C)C1)c1ccc(-c2ccccc2)c(F)c1 [GCBH-110, N—[(S)-2-Fluoro-α-methyl-4-biphenylacetyl]-[L-(4-phenylphenyl)alanine]-N-(2,2,6,6-tetramethyl-4-piperidinyl)amide]
inhibition of growth of the lung carcinoma cell line H2122 tumor [1]: 76%
IC50 [3]: 0.2 µM
IC50 [4]: 2 µM
IC50 [5]: 0.1 to 1 µM
IC50 ([7]; 17 lung cancer cell lines, FIG. 2, read-out: concentrations causing 50% cell death): 0.1 to 2 µM
IC50 ([7]; 96 h, FIGS. 1 and 2, four days incubation, read-out: compound concentrations effective to produce 50% cell death): 0.1 to 2 µM
